Test results from US20250179059A1 (The Regents of the University of California, priority 2021, published 2025).

Tests used:
[1] = biological target: T1, human BRD4 bromodomain II (Homo sapiens, UniProt O60885); assay: Bromodomain binding assay (AlphaScreen), BRD4 BDII; settings: AlphaScreen assay, Table C2; read-out: BRD4 BDII IC50
T1 construct: human BRD4 bromodomain II [based on Genbank NM_058243, residues 349-460]; host or cells: E. coli
Outline: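 Compounds (10-point, 3-fold series) were preincubated 30 min at room temperature with E. coli-expressed N-terminal His6-tagged BRD4 BDII (residues 349-460) or BDI (residues 44-170) in 50 mM HEPES pH 7.5, 100 mM NaCl, 0.05% CHAPS, 0.1% BSA, 1% DMSO. Displacement of biotinylated tetra-acetylated H4 1-21 peptide was read by AlphaScreen; IC50 from curve fitting.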

[2] = system: human SKM-1 acute myeloid leukemia cells; assay: SKM-1 antiproliferation cell-based assay (ATPlite); settings: Homo sapiens, SKM-1, 96 h, SKM-1 antiproliferation assay, 4 days, Table C2
Outline: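 Log-phase cells in RPMI 1640/15% FBS were seeded at 34722 cells/mL and exposed for 4 days to nine-concentration DMSO serial dilutions in triplicate. Viability was read as ATP luminescence (ATPlite 1step), and IC50 values came from variable-slope non-linear regression.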

Row | SMILES | IC50 [1] | GI50 [2]
1 | Cn1ccn(-c2ccc(-c3cc(F)cc(-c4cccc(C5(N)CC5)c4)c3O)cc2Cl)c1=O [Example 803, 1-(3″-(1-aminocyclopropyl)-3-chloro-5′-fluoro-2′-hydroxy-[1,1′:3′,1″-terphenyl]-4-yl)-3-methyl-1H-imidazol-2(3H)-one] | 1 to 10 nM | 30 to 300 nM
2 | CC(C)N1CCN(c2cc(-c3cc(F)cc(-c4ccc(-n5ccn(C)c5=O)c(Cl)c4)c3O)cnc2C(F)(F)F)CC1 [Example 804, 1-(3-chloro-5′-fluoro-2′-hydroxy-3′-(5-(4-isopropylpiperazin-1-yl)-6-(trifluoromethyl)pyridin-3-yl)-[1,1′-biphenyl]-4-yl)-3-methyl-1H-imidazol-2(3H)-one] | 1 to 10 nM | 0.3 to 30 nM
3 | Cn1ccn(-c2ccc(-c3cc(F)cc(-c4ccnc(N5CC6CCC6(N)C5)c4)c3O)cc2Cl)c1=O (centres unmarked) [Example 806, 1-(3′-(2-(1-amino-3-azabicyclo[3.2.0]heptan-3-yl)pyridin-4-yl)-3-chloro-5′-fluoro-2′-hydroxy-[1,1′-biphenyl]-4-yl)-3-methyl-1H-imidazol-2(3H)-one] | 1 to 10 nM | 0.3 to 30 nM
4 | Cn1ccn(-c2ccc(-c3cc(F)cc(-c4cccc(N5CC[C@@](C)(O)C5)c4)c3O)cc2Cl)c1=O [Example 807, (R)-1-(3-chloro-5′-fluoro-2′-hydroxy-3″-(3-hydroxy-3-methylpyrrolidin-1-yl)-[1,1′:3′,1″-terphenyl]-4-yl)-3-methyl-1H-imidazol-2(3H)-one] | 1 to 10 nM | 30 to 300 nM
5 | Cc1ccc(-c2cc(F)cc(-c3ccc(-n4ccn(C)c4=O)c(Cl)c3)c2O)cc1N1CC[C@@](C)(O)C1 [Example 808, (R)-1-(3-chloro-5′-fluoro-2′-hydroxy-3″-(3-hydroxy-3-methylpyrrolidin-1-yl)-4″-methyl-[1,1′:3′,1″-terphenyl]-4-yl)-3-methyl-1H-imidazol-2(3H)-one] | 1 to 10 nM | 30 to 300 nM
6 | CC(C)N1CCN(c2cc(-c3cc(F)cc(-c4ccc(-n5ccn(C)c5=O)c(Cl)c4)c3O)ccc2C(F)(F)F)CC1 [Example 811, 1-(3-chloro-5′-fluoro-2′-hydroxy-3″-(4-isopropylpiperazin-1-yl)-4″-(trifluoromethyl)-[1,1′:3′,1″-terphenyl]-4-yl)-3-methyl-1H-imidazol-2(3H)-one] | 1 to 10 nM | 30 to 300 nM
7 | COc1ncc(-c2cc(F)cc(-c3ccc(-n4ccn(C)c4=O)c(Cl)c3)c2O)cc1N1CC[C@@](C)(O)C1 [Example 812, (R)-1-(3-chloro-5′-fluoro-2′-hydroxy-3′-(5-(3-hydroxy-3-methylpyrrolidin-1-yl)-6-methoxypyridin-3-yl)-[1,1′-biphenyl]-4-yl)-3-methyl-1H-imidazol-2(3H)-one] | 0.01 to 1 nM | 0.3 to 30 nM
8 | Cn1ccn(-c2ccc(-c3cc(F)cc(-c4ccnc(N5CC6(CC6)[C@](C)(O)C5)c4)c3O)cc2Cl)c1=O [Example 815] | 0.01 to 1 nM | 0.3 to 30 nM
9 | Cn1ccn(-c2ccc(-c3cc(F)cc(-c4ccnc(N5CC6(CC6)[C@@](C)(O)C5)c4)c3O)cc2Cl)c1=O [Example 816] | 0.01 to 1 nM | 0.3 to 30 nM
10 | CSc1ncc(-c2cc(F)cc(-c3ccc(-n4ccn(C)c4=O)c(Cl)c3)c2O)cc1N1CCN(C(C)C)CC1 [Example 817, 1-(3-chloro-5′-fluoro-2′-hydroxy-3′-(5-(4-isopropylpiperazin-1-yl)-6-(methylthio)pyridin-3-yl)-[1,1′-biphenyl]-4-yl)-3-methyl-1H-imidazol-2(3H)-one] | 1 to 10 nM | 0.3 to 30 nM
11 | CSc1cc(-c2cc(F)cc(-c3cnc(SC)c(N4CCN(C(C)C)CC4)c3)c2O)ccc1-n1ccn(C)c1=O [Example 818, 1-(5′-fluoro-2′-hydroxy-3′-(5-(4-isopropylpiperazin-1-yl)-6-(methylthio)pyridin-3-yl)-3-(methylthio)-[1,1′-biphenyl]-4-yl)-3-methyl-1H-imidazol-2(3H)-one] | > 100 nM | 30 to 300 nM
12 | CC[C@]1(O)CCN(c2cc(-c3cc(F)cc(-c4ccc(-n5ccn(C)c5=O)c(Cl)c4)c3O)ccn2)C1 [Example 819, (S)-1-(3-chloro-3′-(2-(3-ethyl-3-hydroxypyrrolidin-1-yl)pyridin-4-yl)-5′-fluoro-2′-hydroxy-[1,1′-biphenyl]-4-yl)-3-methyl-1H-imidazol-2(3H)-one] | 1 to 10 nM | 30 to 300 nM
13 | CC[C@@]1(O)CCN(c2cc(-c3cc(F)cc(-c4ccc(-n5ccn(C)c5=O)c(Cl)c4)c3O)ccn2)C1 [Example 820, (R)-1-(3-chloro-3′-(2-(3-ethyl-3-hydroxypyrrolidin-1-yl)pyridin-4-yl)-5′-fluoro-2′-hydroxy-[1,1′-biphenyl]-4-yl)-3-methyl-1H-imidazol-2(3H)-one] | 1 to 10 nM | 0.3 to 30 nM
14 | Cn1ccn(-c2ccc(-c3cc(F)cc(-c4ccnc(N5CCC(C)(N6CCCC6)C5)c4)c3O)cc2Cl)c1=O (centres unmarked) [Example 822, 1-(3-chloro-5′-fluoro-2′-hydroxy-3′-(2-(3′-methyl-[1,3′-bipyrrolidin]-1′-yl)pyridin-4-yl)-[1,1′-biphenyl]-4-yl)-3-methyl-1H-imidazol-2(3H)-one] | 1 to 10 nM | 0.3 to 30 nM
15 | CC(C)N1CCN(c2cc(-c3cc(F)cc(-c4ccc(-n5ccn(C)c5=O)c(Cl)c4)c3O)cnc2OC(F)F)CC1 [Example 824, 1-(3-chloro-3′-(6-(difluoromethoxy)-5-(4-isopropylpiperazin-1-yl)pyridin-3-yl)-5′-fluoro-2′-hydroxy-[1,1′-biphenyl]-4-yl)-3-methyl-1H-imidazol-2(3H)-one] | 1 to 10 nM | 0.3 to 30 nM
16 | Cc1ncc(-c2cc(F)cc(-c3ccc(-n4ccn(C)c4=O)c(Cl)c3)c2O)cc1N1CC[C@@](C)(O)C1 [Example 825, (R)-1-(3-chloro-5′-fluoro-2′-hydroxy-3′-(5-(3-hydroxy-3-methylpyrrolidin-1-yl)-6-methylpyridin-3-yl)-[1,1′-biphenyl]-4-yl)-3-methyl-1H-imidazol-2(3H)-one] | 0.01 to 1 nM | 0.3 to 30 nM

Second part, the molecule after the results:

Row | IC50 [1] | GI50 [2] | SMILES
17 | 0.01 to 1 nM | 0.3 to 30 nM | COc1ncc(-c2cc(F)cc(-c3ccc(-n4ccn(C)c4=O)c(Cl)c3)c2O)cc1N1CCN(C(C)(C)C)CC1 [Example 802, 1-(3′-(5-(4-(tert-butyl)piperazin-1-yl)-6-methoxypyridin-3-yl)-3-chloro-5′-fluoro-2′-hydroxy-[1,1′-biphenyl]-4-yl)-3-methyl-1,3-dihydro-2H-imidazol-2-one]
18 | 1 to 10 nM | 30 to 300 nM | Cn1ccn(-c2ccc(-c3cc(F)cc(-c4cnc(C(F)(F)F)c(N5CCN(C(C)(C)C)CC5)c4)c3O)cc2Cl)c1=O [Example 805, 1-(3′-(5-(4-(tert-butyl)piperazin-1-yl)-6-(trifluoromethyl)pyridin-3-yl)-3-chloro-5′-fluoro-2′-hydroxy-[1,1′-biphenyl]-4-yl)-3-methyl-1H-imidazol-2(3H)-one]
19 | 1 to 10 nM | 0.3 to 30 nM | Cn1ccn(-c2ccc(-c3cc(F)cc(-c4ccc(Cl)c(N5CCN(C(C)(C)C)CC5)c4)c3O)cc2Cl)c1=O [Example 809, 1-(3″-(4-(tert-butyl)piperazin-1-yl)-3,4″-dichloro-5′-fluoro-2′-hydroxy-[1,1′:3′,1″-terphenyl]-4-yl)-3-methyl-1H-imidazol-2(3H)-one]
20 | 1 to 10 nM | 30 to 300 nM | Cn1ccn(-c2ccc(-c3cc(F)cc(-c4ccc(C(F)(F)F)c(N5CCN(C(C)(C)C)CC5)c4)c3O)cc2Cl)c1=O [Example 810, 1-(3″-(4-(tert-butyl)piperazin-1-yl)-3-chloro-5′-fluoro-2′-hydroxy-4″-(trifluoromethyl)-[1,1′:3′,1″-terphenyl]-4-yl)-3-methyl-1H-imidazol-2(3H)-one]
21 | 0.01 to 1 nM | 30 to 300 nM | Cn1ccn(-c2ccc(-c3cc(F)cc(-c4ccc(C(F)F)c(N5CCN(C(C)(C)C)CC5)c4)c3O)cc2Cl)c1=O [Example 813, 1-(3″-(4-(tert-butyl)piperazin-1-yl)-3-chloro-4″-(difluoromethyl)-5′-fluoro-2′-hydroxy-[1,1′:3′,1″-terphenyl]-4-yl)-3-methyl-1H-imdiazol-2(3H)-one]
22 | 0.01 to 1 nM | 0.3 to 30 nM | CC(C)N1CCN(c2cc(-c3cc(F)cc(-c4ccc(-n5ccn(C)c5=O)c(Cl)c4)c3O)ccc2C(F)F)CC1 [Example 814, 1-(3-chloro-4″-(difluoromethyl)-5′-fluoro-2′-hydroxy-3″-(4-isopropylpiperazin-1-yl)-[1,1′:3′,1″-terphenyl]-4-yl)-3-methyl-1H-imidazol-2(3H)-one]
23 | 1 to 10 nM | 0.3 to 30 nM | CSc1ncc(-c2cc(F)cc(-c3ccc(-n4ccn(C)c4=O)c(Cl)c3)c2O)cc1N1CCN(C(C)(C)C)CC1 [Example 821, 1-(3′-(5-(4-(tert-butyl)piperazin-1-yl)-6-(methylthio)pyridin-3-yl)-3-chloro-5′-fluoro-2′-hydroxy-[1,1′-biphenyl]-4-yl)-3-methyl-1H-imidazol-2(3H)-one]
24 | 1 to 10 nM | 0.3 to 30 nM | Cn1ccn(-c2ccc(-c3cc(F)cc(-c4cnc(OC(F)F)c(N5CCN(C(C)(C)C)CC5)c4)c3O)cc2Cl)c1=O [Example 823, 1-(3′-(5-(4-(tert-butyl)piperazin-1-yl)-6-(difluoromethoxy)pyridin-3-yl)-3-chloro-5′-fluoro-2′-hydroxy-[1,1′-biphenyl]-4-yl)-3-methyl-1H-imidazol-2(3H)-one]
25 | 0.01 to 1 nM | 0.3 to 30 nM | Cn1ccn(-c2ccc(-c3cc(F)cc(-c4cnc(C(F)F)c(N5CCN(C(C)(C)C)CC5)c4)c3O)cc2Cl)c1=O [Example 826, 1-(3′-(5-(4-(tert-butyl)piperazin-1-yl)-6-(difluoromethyl)pyridin-3-yl)-3-chloro-5′-fluoro-2′-hydroxy-[1,1′-biphenyl]-4-yl)-3-methyl-1H-imidazol-2(3H)-one]
